Patent US20210154202A1, “SYNTHESIS OF DENTIMOL, AN ANTIGLAUCOMA DRUG” (Virginia Commonwealth University, priority 2018, published 2021)

Columns and labels:
NIH 3T3 fibroblasts = experiment: Cytotoxicity study, WST-1 cell proliferation assay; format: cell-based; conditions: no concentration stated
Description: Cytotoxicity study. NIH 3T3 fibroblasts were seeded in a 96-well plate at 5000 cells per well and allowed 24 h to attach. The cells were maintained in DMEM medium supplemented with 10% serum, streptomycin […] and penicillin (100 U/mL) at 37° C. in 95% air/5% CO2. Upon the removal of the medium, the cells were incubated with fresh DMEM medium (control) or fresh medium containing various amounts of OTM, OTM-PEG, or DenTimol (n=8) for 24 h. Cell viability relative to untreated cells was determined using the WST-1 cell proliferation assay.

[1] = test system: rats (cornea, ciliary body, retina); experiment: In vivo safety assessment, ocular tolerance and histology after once-daily dosing for seven days
Description: In vivo safety assessment. To assess in vivo ocular tolerance, rats received OTM, timolol, or DenTimol (2×5 μL, 0.5% w/v OTM equivalent) in the right eye once daily for seven days. At the conclusion of the experiment, the rats were euthanized. The eyes were enucleated and immediately fixed in Davidson's solution, and 5 μm sections prepared for histological evaluation.

[2] = Water solubility / hydrophobicity as stated; format: physicochemical
[3] = delivered as a topical solution; cited from earlier work
[4] = Ex vivo corneal permeation study, Franz diffusion cells; format: in vitro ADME; conditions: rabbit cornea, 37° C., 3.7 mM OTM equivalent donor
Description: Ex vivo corneal permeation study. Corneal permeability was determined using Franz diffusion cells (PermeGear, Hellertown, Pa.). Corneas were extracted from fresh rabbit eyes and placed immediately into diffusion cells with the endothelial surface facing the acceptor chamber and the epithelial surface facing the donor chamber. The acceptor chamber was filled with 5 mL of glutathione buffered Ringer's solution, and the donor chamber with 100 μL of a solution containing 1 mg of DenTimol (3.7 mM OTM equivalent). For comparison, permeation of OTM and OTM-PEG across the cornea were also tested at the same OTM equivalent concentration. The diffusion cells were placed in a water bath at 37° C. At various time points, 250 μL samples were withdrawn from the acceptor chamber, and drug concentrations were measured using the reverse phase HPLC system.

SMILES | Toxicity of OTM (stated) (NIH 3T3 fibroblasts) | Histology (H&E) of cornea, ciliary body and retina after repeated dosing [1] | Water solubility / hydrophobicity [2] | Period after a dose within therapeutic concentration window in the anterior chamber [3] | Share of total drug reaching the target organ with each dose [3] | Drug permeated through the cornea in 4 h [4]
C1CN(c2nsnc2OC[C@@H]2CO2)CCO1 [OTM, (S)-4-[4-(Oxiranylmethoxy)-1,2,5-thiadiazol-3-yl]morpholine] | non-toxic | did not alter the structures of the cornea, ciliary body, and retina | highly hydrophobic | – | – | –
CC(C)(C)NC[C@H](O)COc1nsnc1N1CCOCC1 [timolol] | – | – | – | 4 to 5 h | about 5% | 3.5%
